Results published in patent US9278925B2, “Substituted 3-(biphenyl-3-yl)-4-hydroxy-8-methoxy-1-azaspiro[4.5]dec-3-en-2-one” (BAYER INTELLECTUAL PROPERTY GMBH, priority 2011, dated 2016).
Values joined by “and” are separate entries in the source; they are usually repeats but may differ in a detail not shown here. Equal entries are not always repeated. Where two headings read alike, the source gives them in different places.

Tests used:
human ACC1 [1] = experiment: Human ACC1 enzyme assay (ADP-Glo); format: biochemical
Experimental: (§1) Typical concentrations were in the range of 1.75 μl.

human ACC1 [2] = biological target: human ACC1 (Homo sapiens, UniProt Q13085); experiment: Human ACC1 enzyme assay (ADP-Glo); format: biochemical; conditions: individual measurement (measurement no./preparation no. in table), read-out: ACC 1 IC50
Experimental: as §1

[3] = Prediction of human pharmacokinetic parameters and human therapeutic dosage (single species scaling from rat); conditions: for pred. CL (human): predicted (fu-corrected) from rat PK
Experimental: The human pharmacokinetic (PK) parameters (Table 9) were predicted based on the in vivo PK parameters obtained for rats (single species scaling), taking into account the interspecies differences in the free fraction (fu) in the plasma. The effective AUC (area under curve) was determined based on the measured plasma concentration time profile for in vivo efficacy in the PC3 tumour model of the mouse (nu/nu mouse). The therapeutic human dosage was determined using the predicted human clearance (CL), assuming 100% bioavailability (F=1) and using the effective AUC in the animal model according to the formula below: […]

[4] = Effective AUC from plasma concentration time profile in the PC3 tumour model; format: in vivo, mouse
Experimental: The human pharmacokinetic (PK) parameters (Table 9) were predicted based on the in vivo PK parameters obtained for rats (single species scaling), taking into account the interspecies differences in the free fraction (fu) in the plasma. The effective AUC (area under curve) was determined based on the measured plasma concentration time profile for in vivo efficacy in the PC3 tumour model of the mouse (nu/nu mouse).

[5] = Plasma protein binding by equilibrium dialysis; format: in vitro ADME; conditions: for fu [%] (mouse): mouse plasma
Experimental: The binding of test substances to plasma proteins is determined by equilibrium dialysis by means of the Ht-dialysis apparatus (96-well) made of Teflon and a semipermeable membrane (regenerated cellulose, MWCO 12-14K). This separates 150 μl each of a plasma side and a buffer side (50 mM phosphate buffer). The test substance is added in 2 concentrations (usually 3 and 0.3 μM) to the plasma side and binds to plasma proteins. The unbound fraction of the test substance passes through the membrane and is distributed on either side until equilibrium is established (after approx. 6-8 h at 37° C.). The substance concentration on the buffer side and the plasma side is determined by LC-MS analysis. For this, both sides are brought by dilution with buffer or plasma to the same matrix (10% plasma) and then precipitated with methanol. The free (unbound) fraction (fu) is calculated from the quotient of the buffer and plasma concentration. Stability tests and recovery tests are run concurrently as controls. In addition, the substance in buffer is dialysed against buffer, to check the nonspecific binding to apparatus and membrane and establishment of equilibrium. Because during incubation the osmotic pressure of the plasma proteins leads to dilution of the plasma (volume shift), this possible error is determined by weighing blank plasma samples and is included in the calculation of fu. Establishment of equilibrium and plasma stability should have a value not lower than 80% and the recovery should be at least 30%. A free fraction of <1% is regarded as high, between 1 and 10% as moderate and >10% as low plasma protein binding.

human PC-3 cells = conditions: for T/C: final tumour weight
Experimental: Xenograft models in immunosuppressed mice were used to determine the antitumour activity in living organisms.
Use was made primarily of a prostate carcinoma model with hormone-independent human PC-3 cells in male nude mice (NMRI-nude (nu/nu) mice, Taconic M&B A/S). To this end, 3 million tumour cells (suspended in medium+Matrigel 1:1, final 0.1 ml) were injected subcutaneously into the side of each animal. When the tumours extended to an area of 20-30 mm^2, the mice were randomized into therapy groups and therapy was initiated. […] At this point in time, the experiment was terminated in all groups and the prepared tumours were weighed.
The T/C value was calculated as primary success parameter using the effect on the final tumour weight: mean tumour weight in the treatment group divided by mean of the tumour weight in the vehicle group.
(§2) Administration route: oral
Vehicle: PEG400/ethanol/Solutol HS 15 (70/5/25, v/v/v)
Administration volume: 10 ml/kg
Number of mice: see Table 8

[6] = Octanol/water distribution coefficient (logP/D), isocratic HPLC method; format: physicochemical
Text: Assay for Determining the Octanol/Water Distribution Coefficient (logP/D): The distribution coefficient octanol/water P or D is a key parameter for estimating membrane penetration and permeability. It is defined as the ratio of the equilibrium concentrations of a substance in the two-phase system octanol/water. [formula] P=partition D=distribution c(octanol)=concentration of the substance in the octanol phase c(water)=concentration of the substance in the aqueous phase It is usually stated in form of the decadic logarithm (logP or logD). logP describes the distribution behaviour of a substance exclusively present in its neutral form. logD describes the distribution behaviour of a substance at a certain pH; depending on the ionisation constant pKa of the substance, some of the substance may be present in ionic form, and some in neutral form. The logP/D of the active compounds was determined using an isocratic HPLC method (HPLC=high performance liquid chromatography) (literature: OECD Guideline for Testing of Chemicals No. 117). The method is based on the correlation of the HPLC retention time of the test substance to that of reference substances with known distribution coefficients. […] The nine reference substances were dissolved individually in methanol. 100 μl each of the stock solutions were added to an HPLC vial and mixed with 300 μl of water. [table] A formamide solution was used to determine the hold-up time. To this end, 7 mg of formamide were dissolved in 10 ml of methanol. 100 μl of this stock solution were mixed with 500 μl of methanol and 200 μl of water. […] [table] [table] Injection Protocol: formamide, references, test substance 1, test substance 2, . . . , formamide, references. Evaluation of the retention times was carried out in a diode array detector (DAD) at 200-400 nm Via the molecular mass, the identity of the test substance was checked using the downstream mass spectrometer. The HPLC run was evaluated using the Waters software Masslynx 4.1. The logP/D values were calculated using the software “POW Determination” (proprietary development).

[7] = Maximum tolerated dose (MTD) in female nude mice; format: in vivo, mouse; conditions: for Deaths: 21 days, 1 administration per day; for MTD at 21 days: female, NMRI-nude (nu/nu), mouse, in vivo, 21-day treatment, administration once per day, oral
Experimental: To this end, initially the maximum tolerable dose (MTD) was determined using the following protocol:
The MTD was defined as the highest dose which could be administered without any animal dying during the treatment phase, and without any body weight loss of more than 10% compared to the initial weight.
as §2
• (Solutol HS15: polyoxyethylene ester of 12-hydroxystearic acid) Administration volume: 10 ml/kg: Protocol: see Table 7
The treatment phase was followed by an observation phase of 21 days.

[8] = 100 mg/kg oral, 14 days, 1 administration per day
[9] = 100 mg/kg oral, 14 days, 2 administrations per day
[10] = 40 mg/kg oral, 20 days, 1 administration per day
[11] = 80 mg/kg oral, 14 days, 2 administrations per day
[12] = 80 mg/kg oral, 20 days, 1 administration per day

With `CO[C@]1(C)CC[C@]2(CC1)NC(=O)C(c1cc(-c3ccc(Cl)cc3)ccc1C)=C2O` [Example V.1-a, (5r,8r)-3-(4′-Chloro-4-methylbiphenyl-3-yl)-4-hydroxy-8-methoxy-8-methyl-1-azaspiro[4.5]dec-3-en-2-one] the “Selectivity ACC1 vs. ACC2 (mean of the individual measurements ± standard deviation)” value (human ACC1 [1]) was 28.2 ± 8.5, the IC50 (human ACC1 [2]) was 108 nM and 182 nM and 132 nM and 97 nM and 55 nM and 104 nM and 213 nM and 137 nM and 151 nM and 81 nM and 91 nM and 147 nM and 158 nM and the “calc. AUC (human)” value ([3]; from mouse dosage 100 mg/kg 1 × per day) was 6494 µg·h/mL. For the same molecule, the “calc. AUC (human)” value ([3]; from mouse dosage 100 mg/kg 2 × per day) was 9867 µg·h/mL, the “pred. CL (human)” value [3] was 3 mL/h/kg and the “ther. AUC (mouse)” value ([4]; dosage (mouse) 100 mg/kg 1 × per day) was 984 µg·h/mL. The “ther. AUC (mouse)” value ([4]; dosage (mouse) 100 mg/kg 2 × per day) was 1495 µg·h/mL, the “fu [%] (human)” value [5] was 0.38% and the “fu [%] (rat)” value [5] was 0.23%. The “fu [%] (mouse)” value [5] was 2.49%, the Deaths (human PC-3 cells; [8]) was 0 of 9 and the T/C (human PC-3 cells; [8]) was 0.30. The Deaths (human PC-3 cells; [9]) was 2 of 9, the T/C (human PC-3 cells; [9]) was 0.15 and the “tolerability (good: body weight change <=minus 10% and 100% survival)” value (human PC-3 cells; 100 mg/kg, administration 2 times per day) was “no good tolerability”. The “tolerability (good: body weight change <=minus 10% and 100% survival)” value (human PC-3 cells; 100 mg/kg, administration once per day) was “good tolerability”, the “logP/D pH7.4” value [6] was 2.51 and the Deaths ([7]; 25 mg/kg oral) was 0 of 4. The Deaths ([7]; 50 mg/kg oral) was 0 of 4, the Deaths ([7]; 100 mg/kg oral) was 0 of 4 and the MTD at 21 days [7] was > 100 mg/kg.
With `CO[C@]1(C)CC[C@]2(CC1)NC(=O)C(c1cc(-c3ccc(Cl)c(F)c3)ccc1C)=C2O` [Example V.2-a, (5r,8r)-3-(4′-Chloro-3′-fluoro-4-methylbiphenyl-3-yl)-4-hydroxy-8-methoxy-8-methyl-1-azaspiro[4.5]dec-3-en-2-one] the “Selectivity ACC1 vs. ACC2 (mean of the individual measurements ± standard deviation)” value (human ACC1 [1]) was 57.2 ± 6.4, the “Selectivity ACC1 vs. ACC2 (mean of the individual measurements ± standard deviation)” value (human ACC1 [1]; listed as V.4-a) was 57.2 ± 26.4 and the IC50 (human ACC1 [2]; listed as V.4-a) was 83 nM and 249 nM and 63 nM and 67 nM and 154 nM and 184 nM (2×) and 90 nM and 87 nM and 75 nM. For the same molecule, the IC50 (human ACC1 [2]) was 83 nM and 249 nM and 63 nM and 67 nM and 154 nM and 184 nM (2×) and 90 nM and 87 nM and 75 nM, the “calc. AUC (human)” value ([3]; from mouse dosage 80 mg/kg 1 × per day) was 3737 µg·h/mL and the “calc. AUC (human)” value ([3]; from mouse dosage 80 mg/kg 2 × per day) was 4702 µg·h/mL. For the same molecule, the “pred. CL (human)” value [3] was 6 mL/h/kg, the “ther. AUC (mouse)” value ([4]; dosage (mouse) 80 mg/kg 1 × per day) was 544 µg·h/mL and the “ther. AUC (mouse)” value ([4]; dosage (mouse) 80 mg/kg 2 × per day) was 672 µg·h/mL. For the same molecule, the “fu [%] (human)” value [5] was 0.39%, the “fu [%] (rat)” value [5] was 0.23% and the “fu [%] (mouse)” value [5] was 2.8%. For the same molecule, the Deaths (human PC-3 cells; [10]) was 0 of 9, the T/C (human PC-3 cells; [10]) was 0.71 and the Deaths (human PC-3 cells; [11]) was 1 of 9. The T/C (human PC-3 cells; [11]) was 0.27, the Deaths (human PC-3 cells; [12]) was 0 of 9 and the T/C (human PC-3 cells; [12]) was 0.44. The “tolerability (good: body weight change <=minus 10% and 100% survival)” value (human PC-3 cells; 80 mg/kg, administration 2 times per day) was “no good tolerability”, the “tolerability (good: body weight change <=minus 10% and 100% survival)” value (human PC-3 cells; 80 mg/kg, administration once per day) was “good tolerability” and the “logP/D pH7.4” value [6] was 2.52. The Deaths ([7]; 10 mg/kg oral) was 0 of 4, the Deaths ([7]; 20 mg/kg oral) was 0 of 4 and the Deaths ([7]; 40 mg/kg oral) was 0 of 4. The Deaths ([7]; 80 mg/kg oral) was 0 of 4 and the MTD at 21 days [7] was > 80 mg/kg.
